In ChEMBL document CHEMBL4130365, “An overview of benzo[b]thiophene-based medicinal chemistry” (Eur J Med Chem, 2017):
Converted amounts (≈) assume the structure as drawn.

How the values were obtained:
[1] = Antioxidant activity assessed as inhibition of ABTS radical formation relative to control; format: functional; parameters: concentration or dose not given beside the values; settings: dose or concentration not given here
[2] = Antioxidant activity assessed as inhibition of superoxide anion radical formation after 5 mins in presence of PMS and NADH by nitroblue tetrazolium method relative to control; format: functional
[3] = test system: Rattus norvegicus; assay: Anti-inflammatory activity in rat assessed as inhibition of cotton pellet-induced granuloma at 100 mg/kg relative to control; format: functional
[4] = test system: Bacillus spizizenii; assay: Antibacterial activity against Bacillus subtilis ATCC 6633 at 1000 ug/ml after 48 hrs by filter paper disc method; format: functional; settings: ATCC 6633, 48 h, read-out: IZ
[5] = test system: Mycobacterium tuberculosis; assay: Antimycobacterial activity against Mycobacterium tuberculosis; format: functional
[6] = test system: Mycobacterium tuberculosis; assay: Antimycobacterial activity against Mycobacterium tuberculosis H37Rv ATCC 25618 after 5 days; format: functional; settings: H37Rv ATCC 25618, 120 h
[7] = target: Beta-secretase 1 (Homo sapiens, UniProt P56817); assay: Inhibition of BACE1 (unknown origin)
Sequence of Beta-secretase 1 (P56817 whole entry): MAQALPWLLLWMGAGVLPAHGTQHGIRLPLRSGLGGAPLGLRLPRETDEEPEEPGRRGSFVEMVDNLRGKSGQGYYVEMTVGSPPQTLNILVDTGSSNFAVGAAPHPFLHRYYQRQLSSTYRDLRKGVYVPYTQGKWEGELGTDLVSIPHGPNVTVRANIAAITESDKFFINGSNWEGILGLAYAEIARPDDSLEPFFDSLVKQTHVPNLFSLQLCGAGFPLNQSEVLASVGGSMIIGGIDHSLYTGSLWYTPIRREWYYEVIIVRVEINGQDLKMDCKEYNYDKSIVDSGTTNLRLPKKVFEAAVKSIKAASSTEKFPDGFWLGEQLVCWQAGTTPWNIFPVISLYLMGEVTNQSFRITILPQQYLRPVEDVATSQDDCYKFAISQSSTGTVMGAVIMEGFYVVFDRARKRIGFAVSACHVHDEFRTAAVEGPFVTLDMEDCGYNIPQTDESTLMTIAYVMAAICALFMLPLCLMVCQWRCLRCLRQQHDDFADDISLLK

[8] = test system: Mycobacterium tuberculosis; assay: Growth inhibition of Mycobacterium tuberculosis relative to control; format: functional
[9] = target: Tubulin; assay: Inhibition of tubulin polymerization (unknown origin); format: protein-complex assay, Homo sapiens
[10] = target: T1, Peroxisome proliferator-activated receptor gamma (Homo sapiens) (UniProt P37231); assay: Transactivation of GAL4 DBD-fused human PPARgamma LBD (174 to 475 residues) expressed in human HepG2 cells harboring pGL3-promoter-GAL4 at 28 uM after 24 hrs by luciferase reporter gene assay relative to control; format: cell-based
T1 sequence (whole entry): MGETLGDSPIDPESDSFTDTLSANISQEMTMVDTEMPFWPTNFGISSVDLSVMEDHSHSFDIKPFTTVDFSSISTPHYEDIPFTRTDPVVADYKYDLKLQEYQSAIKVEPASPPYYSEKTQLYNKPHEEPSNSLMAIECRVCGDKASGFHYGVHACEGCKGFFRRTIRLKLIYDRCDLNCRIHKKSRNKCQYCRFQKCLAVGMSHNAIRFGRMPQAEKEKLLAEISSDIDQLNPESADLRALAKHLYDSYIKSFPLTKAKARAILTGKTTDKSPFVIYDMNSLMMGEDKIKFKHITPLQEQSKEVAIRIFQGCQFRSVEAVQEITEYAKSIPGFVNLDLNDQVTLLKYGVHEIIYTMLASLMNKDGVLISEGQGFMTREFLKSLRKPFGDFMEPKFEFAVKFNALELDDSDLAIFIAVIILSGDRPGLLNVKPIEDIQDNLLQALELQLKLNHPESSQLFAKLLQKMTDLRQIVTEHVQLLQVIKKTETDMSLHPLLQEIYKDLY

[11] = test system: MCF7; assay: Growth inhibition of human MCF7 cells; format: functional, cell-based
[12] = test system: NCI-H460; assay: Growth inhibition of human NCI-H460 cells; format: functional, cell-based
[13] = test system: SF-268; assay: Growth inhibition of human SF268 cells; format: functional, cell-based
[14] = test system: Aspergillus niger; assay: Antifungal activity against Aspergillus niger at 1000 ug/ml after 48 hrs by filter paper disc method; format: functional; settings: read-out: IZ
[15] = test system: Candida; assay: Antifungal activity against Candida pannical at 1000 ug/ml after 48 hrs by filter paper disc method; format: functional; settings: read-out: IZ
[16] = test system: SF-268; assay: Growth inhibition of human SF268 cells after 48 hrs by SRB assay; format: functional, cell-based; settings: SF-268, 48 h
[17] = test system: MCF7; assay: Growth inhibition of human MCF7 cells after 48 hrs by SRB assay; format: functional, cell-based; settings: MCF7, 48 h
[18] = test system: NCI-H460; assay: Growth inhibition of human NCI-H460 cells after 48 hrs by SRB assay; format: functional, cell-based; settings: NCI-H460, 48 h
[19] = test system: Streptococcus pneumoniae; assay: Antibacterial activity against Streptococcus pneumoniae at 1000 ug/ml after 48 hrs by filter paper disc method; format: functional; settings: read-out: IZ
[20] = test system: Staphylococcus aureus; assay: Antibacterial activity against Staphylococcus aureus ATCC 25923 at 40 ug/ml after 48 hrs by filter paper disc method; format: functional; settings: ATCC 25923, 48 h, read-out: IZ

**Q.** Which inhibition [1] does the source give for CCOC(=O)C1=C(NNC2=C(O)C(=O)c3ccccc3C2=O)SC2CCCCC12 (stereo unspecified) here?
**A.** 98.9%

**Q.** For CCOC(=O)CSC(SCC(=O)OCC)=C(C#N)C(=O)Nc1sc2c(c1C(=O)OCC)CCCC2, which inhibition [2] is on record?
**A.** 58.9%

**Q.** With O=c1c2c3c(sc2ncn1/N=C/c1ccccc1Cl)CCCC3 as the compound, how does the inhibition in vivo at 100 mg/kg [3] read?
**A.** 28.2%

**Q.** For CCOC(=O)c1c(NC2=C(OC)C(=O)c3ccccc3C2=O)sc2c1CCCC2, which inhibition [1] is on record?
**A.** 89.9%

**Q.** Which zone of inhibition at 1000 µg/mL [4] does the source give for Clc1c(-c2nnc(CNc3ccccc3)o2)sc2ccccc12 here?
**A.** 15 mm

**Q.** With O=C(Nn1c(-c2ccccc2[N+](=O)[O-])nc2ccccc2c1=O)c1sc2ccccc2c1Cl as the compound, how does the MIC [5] read?
**A.** 12.5 µg/mL (≈ 26.2 µM)

**Q.** For Cc1ccc(-c2nnc(SC3=CS(=O)(=O)c4ccccc43)o2)cc1, which MIC99 [6] is on record?
**A.** 8.2 µM (≈ 2.92 µg/mL)

**Q.** For COC(=O)c1cc(C)nc2sc3cccc(OC)c3c12, which IC50 [7] is on record?
**A.** 600 nM

**Q.** With COc1ccc2sc(N)cc2c1 as the compound, how does the IC50 [7] read?
**A.** 2140 nM

**Q.** For O=C(NN1C(=O)/C(=C/c2ccccc2[N+](=O)[O-])N=C1c1ccccc1)c1sc2ccc(Cl)cc2c1Cl, which “growth inhibition (GI)” value [8] is on record?
**A.** 71%

**Q.** What about the MIC [5] of the same compound?
**A.** > 6.25 µg/mL

**Q.** With COc1ccc(-c2sc3cc(OC)ccc3c2C(=O)c2cc(OC)c(OC)c(OC)c2)cc1 as the compound, how does the IC50 [9] read?
**A.** 40000 nM

**Q.** With C[S+]([O-])CC(=O)c1cc2ccccc2s1 (stereo unspecified) as the compound, how does the Activity [10] read?
**A.** 121%

**Q.** Which zone of inhibition at 1000 µg/mL [4] does the source give for COc1ccc(/C=C/C(=O)c2ccc(NC(=O)c3sc4ccccc4c3Cl)cc2)cc1 here?
**A.** 16 mm

**Q.** For N#Cc1c(/N=C/C2C(N)=NN=C2O)sc2c1CCCC2 (stereo unspecified), which IC50 [11] is on record?
**A.** 20 nM

**Q.** And the IC50 [12]?
**A.** 10 nM

**Q.** And the IC50 [13]?
**A.** 20 nM

**Q.** Which MIC99 [6] does the source give for O=S1(=O)C=C(Sc2nnc(-c3ccc(Cl)cc3)o2)c2ccccc21 here?
**A.** 3.9 µM (≈ 1.47 µg/mL)

**Q.** Which IC50 [9] does the source give for COc1ccc(-c2sc3cc4c(cc3c2C(=O)c2cc(OC)c(OC)c(OC)c2)OCO4)cc1O here?
**A.** 40000 nM

**Q.** Which zone of inhibition at 1000 µg/mL [14] does the source give for O=c1c2ccccc2nc(-c2sc3ccccc3c2Cl)n1-c1ccc([N+](=O)[O-])cc1 here?
**A.** 10 mm

**Q.** And the zone of inhibition at 1000 µg/mL [15]?
**A.** 17 mm

**Q.** Which IC50 [16] does the source give for CCOC(=O)c1c(-n2c(N)c(C#N)c(C)cc2=O)sc2c1CCCC2 here?
**A.** 80 nM

**Q.** What about the IC50 [17] of the same compound?
**A.** 10 nM

**Q.** What about the IC50 [18] of the same compound?
**A.** 10 nM

**Q.** Which inhibition [1] does the source give for CCOC(=O)c1c(NC2=CC(=O)C(=O)c3ccccc32)sc2c1CCCC2 here?
**A.** 65.6%

**Q.** With N=C1c2c(sc3c2CCCC3)N=C(SCC(=O)c2ccccc2)C1C(=O)c1ccccc1 (stereo unspecified) as the compound, how does the IC50 [11] read?
**A.** 10 nM

**Q.** And the IC50 [12]?
**A.** 20 nM

**Q.** What about the IC50 [13] of the same compound?
**A.** 10 nM

**Q.** With CCOC(=O)c1c(NC(=O)c2c(NC(=O)CC#N)sc3c2CCC3)sc2c1CCCC2 as the compound, how does the inhibition [2] read?
**A.** 61.4%

**Q.** For CCOC(=O)C1=C(NCC2=C(O)C(=O)c3ccccc3C2=O)SC2CCCCC12 (stereo unspecified), which inhibition [1] is on record?
**A.** 63.2%

**Q.** With Cc1ccccc1Nc1nnc(NC(=O)c2cc3cc(Oc4ccccc4)ccc3s2)s1 as the compound, how does the “growth inhibition (GI)” value [8] read?
**A.** 60%

**Q.** What about the MIC [5] of the same compound?
**A.** > 6.25 µg/mL

**Q.** For COC(=O)c1cc(C)c2c(n1)sc1ccc(OC)cc12, which IC50 [7] is on record?
**A.** 2200 nM

**Q.** For Cc1ccc(-n2c(S)nnc2NC(=O)c2sc3ccc(Cl)cc3c2Cl)cc1, which “growth inhibition (GI)” value [8] is on record?
**A.** 64%

**Q.** And the MIC [5]?
**A.** > 6.25 µg/mL

**Q.** For CC(C)Cc1ccc(C(C)C(=O)O)cc1 (stereo unspecified) [IBUPROFEN], which inhibition in vivo at 100 mg/kg [3] is on record?
**A.** 31.3%

**Q.** With COc1ccc(Nc2nnc(NC(=O)c3cc4cc(Oc5ccccc5)ccc4s3)s2)cc1 as the compound, how does the “growth inhibition (GI)” value [8] read?
**A.** 90%

**Q.** What about the MIC [5] of the same compound?
**A.** > 6.25 µg/mL

**Q.** For COc1cc(OC)c2ccc(=O)n(NC(=O)c3sc4cc(F)ccc4c3N)c2c1, which zone of inhibition at 1000 µg/mL [19] is on record?
**A.** 20 mm

**Q.** And the zone of inhibition at 40 µg/mL [20]?
**A.** 24 mm

**Q.** What about the zone of inhibition at 1000 µg/mL [14] of the same compound?
**A.** 26 mm

**Q.** What about the zone of inhibition at 1000 µg/mL [4] of the same compound?
**A.** 23 mm

**Q.** Which results are given for COc1ccccc1Nc1nnc(NC(=O)c2cc3cc(Oc4ccccc4)ccc3s2)s1?
**A.** growth inhibition (GI) [8]: 60%; MIC [5]: > 6.25 µg/mL

**Q.** With COc1ccc(NC(=O)Nc2sc3ccccc3c2Cl)cc1 as the compound, how does the zone of inhibition at 40 µg/mL [20] read?
**A.** 15 to 16 mm

**Q.** With O=C(c1ccsc1)c1cccs1 as the compound, how does the Activity [10] read?
**A.** 114%
